Laboratory results: patent US20240206484A1, “METHOD OF DEVELOPMENT OF SELECTIVE PROBIOTIC GROWTH PROMOTORS AND SELECTIVE PATHOGEN GROWTH INHIBITORS FROM KIMCHI FERMENTATION” (Hannip Inc., priority 2022, published 2024)

Legend:
L. plantarum = experiment: Impact of lactic acid on the effect of BKE-X1 or BKE-X2 on growth, colonies counted; format: cell-based, Lactobacillus plantarum; conditions: lactic acid to reduce pH to 3 or less; 48 hours at 30° C.; vs control
Experimental: (§1) To MRS culture medium (1 mL) in a culture tube (15 mL), saline (9 mL), BKE-X1 or BKE-X2 (500 mg), and kimchi bacteria culture solution (select one of L. mesenteroides and L. plantarum) (0.5 mL) were added. The mixture was vortex stirred and cultured for 48 hours at 30° C. To MRS culture medium (1 mL) in another culture tube (15 mL), saline (9 mL), BKE-X1 or BKE-X2 (500 mg), kimchi bacteria culture solution (select one of L. mesenteroides and L. plantarum) (0.5 mL), and lactic acid (to reduce pH to 3 or less) were added. The mixture was vortex stirred and cultured for 48 hours at 30° C. To MRS culture medium (1 mL) in yet another culture tube (15 mL), saline (9 mL), kimchi bacteria culture solution (select one of L. mesenteroides and L. plantarum) (0.5 mL), and lactic acid (to reduce pH to 3 or less) were added. The mixture was vortex stirred and cultured for 48 hours at 30° C. As the control, to MRS culture medium (1 mL) in yet another culture tube (15 mL), saline (9 mL) and kimchi bacteria culture solution (select one of L. mesenteroides and L. plantarum) (0.5 mL) were added. The mixture was vortex stirred and cultured for 48 hours at 30° C. An aliquot (0.5 mL) was collected from each culture medium and serially diluted to 16,000× using saline solution. […] The colonies were counted and photographed, then compared side by side.

L. mesenteroides = experiment: as above; format: cell-based, Leuconostoc mesenteroides; conditions: lactic acid to reduce pH to 3 or less; 48 hours at 30° C.; vs control
Experimental: as §1

**Q.** For CC(O)C(=O)O (centres unmarked) [lactic acid], which “growth of L. plantarum, lactic acid alone” value (L. plantarum) is on record?
**A.** negligibly promoting

**Q.** And the “growth of L. mesenteroides, lactic acid alone” value (L. mesenteroides)?
**A.** negligibly inhibit
